From PubChem BioAssay (NCI)
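48-hour exposure; five concentrations; linearly interpolated endpoints. The concentration for full growth arrest is given as TGI.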

What was measured:
Assay in all cases: growth of human tumour cells (NCI), 48 h
A498 renal = tested on: A498 renal
CCRF-CEM leukemia = tested on: CCRF-CEM leukemia
MCF7 breast = tested on: MCF7 breast
MDA-MB-435 = tested on: MDA-MB-435
SF-268 CNS = tested on: SF-268 CNS
SN12C renal = tested on: SN12C renal
SR leukemia = tested on: SR leukemia
UO-31 renal = tested on: UO-31 renal
LOX IMVI melanoma = tested on: LOX IMVI melanoma
DU-145 prostate = tested on: DU-145 prostate

`COC(=O)/C=C\n1c(C)cc(=O)[nH]c1=O` was tested, and the TGI (A498 renal) was > 100 µM, the TGI (CCRF-CEM leukemia) was > 100 µM and the TGI (MCF7 breast) was 89 µM. The TGI (MDA-MB-435) was > 100 µM, the TGI (SF-268 CNS) was > 100 µM and the TGI (SN12C renal) was > 100 µM. The TGI (SR leukemia) was > 100 µM and the TGI (UO-31 renal) was > 100 µM.

`Cc1ccc(S(=O)(=O)N/N=C(\c2nc3ccc(Cl)cc3[nH]c2=O)C(O)c2cccc([N+](=O)[O-])c2)cc1` (stereo unspecified) was tested, and the TGI (A498 renal) was > 100 µM, the TGI (CCRF-CEM leukemia) was > 100 µM and the TGI (LOX IMVI melanoma) was > 100 µM. The TGI (SF-268 CNS) was > 100 µM, the TGI (SN12C renal) was > 100 µM and the TGI (SR leukemia) was > 100 µM. For the same compound, the TGI (UO-31 renal) was > 100 µM.

`Cc1c(Cl)c2ccccc2n1S(=O)(=O)c1ccccc1` was tested, and the TGI (CCRF-CEM leukemia) was > 100 µM, the TGI (SF-268 CNS) was > 100 µM and the TGI (SR leukemia) was > 100 µM. The TGI (UO-31 renal) was 85.6 µM.

For `CCOC(=O)C1(C/C=C(/C)Cl)CCCC1=O` (stereo unspecified), the TGI (A498 renal) was > 100 µM, the TGI (CCRF-CEM leukemia) was > 100 µM and the TGI (LOX IMVI melanoma) was > 100 µM. For the same compound, the TGI (SF-268 CNS) was > 100 µM, the TGI (SN12C renal) was > 100 µM and the TGI (SR leukemia) was 45.7 µM. The TGI (UO-31 renal) was > 100 µM.

With `COC(=O)/C=C1/CCC(C(=O)OC)N1` (stereo unspecified) the TGI (A498 renal) was > 100 µM, the TGI (CCRF-CEM leukemia) was > 100 µM and the TGI (LOX IMVI melanoma) was > 100 µM. The TGI (SF-268 CNS) was > 100 µM, the TGI (SN12C renal) was > 100 µM and the TGI (SR leukemia) was > 100 µM. For the same compound, the TGI (UO-31 renal) was > 100 µM.

In the case of `COc1ccc(-c2cc(=O)c3cc4c(cc3[nH]2)OCO4)cc1OC`, the TGI (CCRF-CEM leukemia) is reported as > 100 µM, the TGI (LOX IMVI melanoma) is reported as > 100 µM and the TGI (SF-268 CNS) is reported as > 100 µM. For the same compound, the TGI (SN12C renal) was > 100 µM, the TGI (SR leukemia) was > 100 µM and the TGI (UO-31 renal) was > 100 µM.

`CC(C)(C)N=NNc1cn(C2OC(CO)C(O)C2O)c(=O)[nH]c1=O` (stereo unspecified) was tested, and the TGI (A498 renal) was > 100 µM, the TGI (CCRF-CEM leukemia) was 95.4 µM and the TGI (LOX IMVI melanoma) was > 100 µM. For the same compound, the TGI (SF-268 CNS) was > 100 µM, the TGI (SN12C renal) was > 100 µM and the TGI (SR leukemia) was 50.8 µM. For the same compound, the TGI (UO-31 renal) was > 100 µM.

In the case of `N#CC1=C(N)n2c(s/c(=C\c3ccc(Cl)cc3)c2=O)=C(c2nc3ccccc3[nH]2)C1c1ccc(Cl)cc1` (stereo unspecified), the TGI (A498 renal) is reported as 4.29 µM, the TGI (CCRF-CEM leukemia) is reported as 4.23 µM and the TGI (LOX IMVI melanoma) is reported as 3.23 µM. It also gave a TGI (SF-268 CNS) of 7.11 µM, a TGI (SN12C renal) of 4.6 µM and a TGI (SR leukemia) of 5.85 µM. The TGI (UO-31 renal) was > 100 µM.

`COc1cc2c(c(OC)c1OC)-c1ccc(SC)c(=O)cc1[C@@H](NCc1ccc(C#N)cc1)CC2` was tested, and the TGI (LOX IMVI melanoma) was 55.1 µM, the TGI (SN12C renal) was > 100 µM and the TGI (SR leukemia) was 18.5 µM. The TGI (UO-31 renal) was > 100 µM.

With `CC(C)/C(Cl)=N\OC(=O)Nc1ccccc1F` the TGI (A498 renal) was 28.3 µM, the TGI (CCRF-CEM leukemia) was 3.44 µM and the TGI (DU-145 prostate) was 30 µM. For the same compound, the TGI (LOX IMVI melanoma) was 6.92 µM, the TGI (MCF7 breast) was 16 µM and the TGI (SF-268 CNS) was 41.9 µM. For the same compound, the TGI (SN12C renal) was 26.8 µM, the TGI (SR leukemia) was 6.54 µM and the TGI (UO-31 renal) was 29.6 µM.

`O=S(=O)(CCBr)CCBr` was tested, and the TGI (A498 renal) was 14.8 µM, the TGI (CCRF-CEM leukemia) was > 30.2 µM and the TGI (LOX IMVI melanoma) was 21.8 µM. The TGI (MCF7 breast) was 18.3 µM, the TGI (SF-268 CNS) was 16.1 µM and the TGI (SN12C renal) was 21.8 µM. The TGI (UO-31 renal) was > 100 µM.

For `NC(CCCC(N)P(=O)(O)c1ccccc1)P(=O)(O)c1ccccc1` (stereo unspecified), the TGI (A498 renal) was > 261 µM, the TGI (CCRF-CEM leukemia) was > 261 µM and the TGI (LOX IMVI melanoma) was > 261 µM. The TGI (SF-268 CNS) was > 261 µM, the TGI (SN12C renal) was > 261 µM and the TGI (SR leukemia) was > 261 µM. The TGI (UO-31 renal) was > 261 µM.

`C[n+]1c(-c2ccc(/C=N/NC(=N)N/N=C/c3ccc(-c4cn5cc(Cl)ccc5[n+]4C)cc3)cc2)cn2cc(Cl)ccc21` was tested, and the TGI (CCRF-CEM leukemia) was > 100 µM, the TGI (MCF7 breast) was > 100 µM and the TGI (MDA-MB-435) was > 100 µM. The TGI (SF-268 CNS) was > 100 µM, the TGI (SN12C renal) was > 100 µM and the TGI (SR leukemia) was > 100 µM. For the same compound, the TGI (UO-31 renal) was > 100 µM.

With `COc1cc(C2c3cc4c(cc3[C@@H](Nc3ccccc3)C3COC[C@H]23)OCO4)cc(OC)c1O` (stereo partly specified) the TGI (CCRF-CEM leukemia) was 2.15 µM, the TGI (MCF7 breast) was > 100 µM and the TGI (SF-268 CNS) was > 100 µM. For the same compound, the TGI (SN12C renal) was 54.3 µM, the TGI (SR leukemia) was 16.5 µM and the TGI (UO-31 renal) was 3.71 µM.

`CCc1cc(Cc2cc(Cl)c(NC(=O)C(=O)C3NC(=O)NC3=O)c(CC)c2)cc(Cl)c1NC(=O)C(=O)C1NC(=O)NC1=O` (stereo unspecified) was tested, and the TGI (A498 renal) was > 100 µM, the TGI (CCRF-CEM leukemia) was > 100 µM and the TGI (LOX IMVI melanoma) was > 100 µM. The TGI (SF-268 CNS) was > 100 µM, the TGI (SN12C renal) was > 100 µM and the TGI (SR leukemia) was > 100 µM. The TGI (UO-31 renal) was > 100 µM.

For `Clc1ccc(SC(/C=C/NNC2=NC(c3ccccc3)C(c3ccccc3)=NN2)c2ccccc2)cc1` (stereo unspecified), the TGI (A498 renal) was > 100 µM, the TGI (CCRF-CEM leukemia) was 73.1 µM and the TGI (LOX IMVI melanoma) was 65.7 µM. For the same compound, the TGI (SF-268 CNS) was 78.1 µM, the TGI (SN12C renal) was > 100 µM and the TGI (UO-31 renal) was 38.8 µM.

With `O=C(c1ccc(Cl)cc1)c1ccc(OCCCOc2ccc(C(=O)c3ccc(Cl)cc3)cc2)cc1` the TGI (CCRF-CEM leukemia) was > 100 µM, the TGI (LOX IMVI melanoma) was > 100 µM and the TGI (SF-268 CNS) was > 100 µM. The TGI (SN12C renal) was > 100 µM and the TGI (SR leukemia) was > 100 µM.

In the case of `O=c1[nH]c(=O)n(C2OC(COP(=O)(O)OP(=O)(O)OC3OC(CO)C(O)C(O)C3O)C(O)C2O)cc1F` (stereo unspecified), the TGI (A498 renal) is reported as 7.43 µM, the TGI (CCRF-CEM leukemia) is reported as > 100 µM and the TGI (LOX IMVI melanoma) is reported as 4.13 µM. The TGI (SF-268 CNS) was > 100 µM, the TGI (SN12C renal) was > 100 µM and the TGI (SR leukemia) was > 21.6 µM. For the same compound, the TGI (UO-31 renal) was 2.29 µM.

Work on `Cc1nc(Nc2ccc(Cl)cc2)sc1C(=O)NNc1ccc([N+](=O)[O-])cc1[N+](=O)[O-]` yielded a TGI (A498 renal) of 30.6 µM, a TGI (CCRF-CEM leukemia) of 52.3 µM and a TGI (LOX IMVI melanoma) of 35.7 µM. The TGI (SF-268 CNS) was 38.8 µM, the TGI (SN12C renal) was 36.2 µM and the TGI (UO-31 renal) was 27.2 µM.

`CN(C)c1ccc(C(=C(c2ccc(N(C)C)cc2)c2ccc(N(C)C)cc2)c2ccc(N(C)C)cc2)cc1` was tested, and the TGI (A498 renal) was 36.8 µM, the TGI (CCRF-CEM leukemia) was 50.4 µM and the TGI (LOX IMVI melanoma) was 31.2 µM. For the same compound, the TGI (SF-268 CNS) was 56.4 µM, the TGI (SN12C renal) was 35.2 µM and the TGI (SR leukemia) was 30.8 µM. It also gave a TGI (UO-31 renal) of 39.9 µM.

For `O=C1Nc2ccccc2C12CCNC2Cc1ccccc1` (stereo unspecified), the TGI (A498 renal) was > 100 µM, the TGI (CCRF-CEM leukemia) was > 100 µM and the TGI (LOX IMVI melanoma) was > 100 µM. For the same compound, the TGI (SF-268 CNS) was > 100 µM.

With `CCOC(=O)c1cc(-c2cc(OC)c(OC)c([N+](=O)[O-])c2)c([N+](=O)[O-])n1C` the TGI (CCRF-CEM leukemia) was > 10 µM, the TGI (MDA-MB-435) was 4.72 µM and the TGI (SF-268 CNS) was > 10 µM. For the same compound, the TGI (SN12C renal) was > 10 µM, the TGI (SR leukemia) was > 10 µM and the TGI (UO-31 renal) was > 10 µM.
